Experimental data reported in patent US4428938A, “Peptides affecting the immune regulation and a process for their preparation” (Richter Gedeon Vegyeszeti Gyar Rt., priority 1981, dated 1984).
Non-standard residues stand in square brackets, D forms with d. Residues, ends and D or L forms follow the SMILES beside them. pGlu = O=C1CC[C@@H](C(=O)O)N1

Experiments:
[1] = system: lymphocytes of patients suffering from rheumatoid arthritis; test: Active E-rosette test, lymphocytes of rheumatoid arthritis patients; assay type: cell-based, human; conditions: for E-rosette forming activity, percentage amount of active lymphocytes: n = 4
Procedure: (§1) The active E-rosette test was carried out according to a modified method of Wybran et al [Wybran et al: New Engl. J. Med. 292, 475 (1975)] by the lymphocites of healthy and autoimmune patients (rheumatoid arthritis and systemic lupus erythematosus). To 50 μl of a lymphocyte cell suspension 10^-3 -10^-11 moles/lit. solutions of the test material were added and the mixture was incubated in an atmosphere containing 5.0% of carbon dioxide, at 37° C. for 60 minutes. Thereafter 50 μlit. of a 1% sheep erythrocite suspension were added and the mixture was centrifuged at 1000 r.p.m. for 10 minutes followed by shaking with a modified Gallenkampf-shaker (shaking time: 30 sec, stroke: 8 cm, shaking frequency: 65/min.). The rosettes were fixed with a 0.1% glutaric aldehyde (50 μlit. for each tube, 3 min.). Lymphocytes bonding more than three sheep erythrocite were counted under a microscope and 4×100 cells were evaluated. The separated lymphocytes contain macrophages and polymorphonuclear cells (up to 10%) as an impurity. The number of the cells forming the rosettes was corrected by this value each case.

[2] = system: lymphocytes of healthy persons; test: Active E-rosette test, lymphocytes of healthy persons; assay type: cell-based, human; conditions: for E-rosette forming activity, percentage amount of active lymphocytes: n = 4
Procedure: as §1

Row | SMILES | E-rosette forming activity, percentage amount of active lymphocytes ([1]; 10^-3 moles/liter) | E-rosette forming activity, percentage amount of active lymphocytes ([1]; 10^-5 moles/liter) | E-rosette forming activity, percentage amount of active lymphocytes ([1]; 10^-7 moles/liter) | E-rosette forming activity, percentage amount of active lymphocytes ([1]; 10^-9 moles/liter) | E-rosette forming activity, percentage amount of active lymphocytes ([1]; 10^-11 moles/liter) | E-rosette forming activity, percentage amount of active lymphocytes ([2]; 10^-3 moles/liter) | E-rosette forming activity, percentage amount of active lymphocytes ([2]; 10^-5 moles/liter) | E-rosette forming activity, percentage amount of active lymphocytes ([2]; 10^-7 moles/liter) | E-rosette forming activity, percentage amount of active lymphocytes ([2]; 10^-9 moles/liter) | E-rosette forming activity, percentage amount of active lymphocytes ([2]; 10^-11 moles/liter) | Effect on E-rosette forming activity (in words) ([2]; 10^-9 moles/lit.) | Effect on E-rosette forming activity (in words) ([2]; 10^-11 moles/lit.) | Effect on E-rosette forming activity (in words) ([1]; 10^-9 moles/lit.) | Effect on E-rosette forming activity (in words) ([1]; 10^-11 moles/lit.) | Effect on E-rosette forming activity (in words) ([1]; 10^-5 moles/lit.)
1 | CC(C)[C@H](NC(=O)[C@H](CC(=O)O)NC(=O)[C@H](C)NC(=O)[C@@H](N)CCCNC(=N)N)C(=O)O [Arg--Ala--Asp--Val, Arg-Ala-Asp-Val] (H-RADV-OH) | 21.8% | 20.2% | 19.8% | 20.7% | 22.5% | 32.5% | 33.4% | 32.4% | 38.2% | 36.0% |  |  |  |  | 
2 | CC(C)[C@H](NC(=O)[C@H](CCCCN)NC(=O)[C@H](CC(=O)O)NC(=O)[C@@H](N)CCCNC(=N)N)C(=O)O [Arg--Asp--Lys--Val, Arg-Asp-Lys-Val] (H-RDKV-OH) | 25.4% | 26.2% | 26.4% | 27.3% | 27.5% | 34.2% | 37.5% | 37.7% | 40.4% | 36.4% | significant stimulating effect |  |  |  | 
3 | CC(C)[C@H](NC(=O)[C@H](C)NC(=O)[C@H](CCCCN)NC(=O)[C@@H](N)CCCNC(=N)N)C(=O)O [Arg--Lys--Ala--Val, Arg-Lys-Ala-Val] (H-RKAV-OH) | 20.3% | 23.4% | 21.7% | 25.5% | 23.1% | 33.3% | 30.5% | 35.8% | 34.5% | 30.9% |  |  |  |  | 
4 | CC(C)[C@H](NC(=O)[C@H](CC(N)=O)NC(=O)[C@H](CCCCN)NC(=O)[C@@H](N)CCCNC(=N)N)C(=O)O [Arg--Lys--Asn--Val, Arg-Lys-Asn-Val] (H-RKNV-OH) | 22.3% | 21.9% | 24.6% | 23.7% | 24.3% | 35.5% | 39.1% |  | 35.4% | 36.7% |  |  |  |  | 
5 | CC[C@H](C)[C@H](NC(=O)[C@H](CC(=O)O)NC(=O)[C@H](CCCCN)NC(=O)[C@@H](N)CCCNC(=N)N)C(=O)O [Arg--Lys--Asp--Ile, Arg-Lys-Asp-Ile] (H-RKDI-OH) | 25.5% | 25.4% | 23.2% | 28.7% | 24.5% | 35.5% | 32.0% | 34.9% | 35.0% | 30.7% |  |  |  |  | 
6 | CC(C)[C@H](NC(=O)[C@H](CCC(=O)O)NC(=O)[C@H](CCCCN)NC(=O)[C@@H](N)CCCNC(=N)N)C(=O)O [Arg--Lys--Glu--Val, Arg-Lys-Glu-Val] (H-RKEV-OH) |  |  |  |  |  | 33.2% | 32.9% | 36.2% | 35.4% | 33.0% |  |  |  |  | 
7 | N=C(N)NCCC[C@H](NC(=O)[C@@H]1CCC(=O)N1)C(=O)N[C@@H](CCCCN)C(=O)N[C@@H](CC(=O)O)C(=O)O [Glp--Arg--Lys--Asp, Glp-Arg-Lys-Asp] ([pGlu]RKD-OH) | 20.6% | 18.7% | 19.5% | 19.7% | 18.4% | 29.1% | 33.8% | 35.1% | 26.6% | 38.1% |  | stimulating effect |  |  | 
8 | CC(C)[C@H](NC(=O)[C@H](CC(=O)O)NC(=O)[C@H](CCCNC(=N)N)NC(=O)[C@@H](N)CCCCN)C(=O)O [Lys--Arg--Asp--Val, Lys-Arg-Asp-Val] (H-KRDV-OH) | 23.6% | 25.8% | 21.2% | 25.7% | 26.6% | 31.5% | 25.6% | 30.0% | 29.1% | 32.9% |  |  | significantly stimulated | stimulating effect | 
9 | N=C(N)NCCC[C@H](NC(=O)[C@@H]1CCC(=O)N1)C(=O)N[C@@H](CCCCN)C(=O)N[C@@H](CC(=O)O)C(=O)O [compound No. 8] ([pGlu]RKD-OH) |  |  |  |  |  |  |  |  |  |  |  |  |  |  | significant inhibiting activity
10 | CC(C)[C@H](NC(=O)[C@H](CC(N)=O)NC(=O)[C@H](CCCCN)NC(=O)[C@@H](N)CCCNC(=N)N)C(=O)O [compound No. 9] (H-RKNV-OH) |  |  |  |  |  |  |  |  |  |  |  |  |  |  | significant inhibiting activity
